# Experiment: recombinant barcode read abundance after kanamycin selection (control-corrected) (log10(CPM+1)); higher = more efficient recombination; sequences stand for … in AGTGCAGAGAAAATCGGCCAGTTTTCTCTGCCTGCAGTCCGCATGCCGT…AGATTTATGCAGCGGACTGCCTTTCTCCCAAAGTGATAAACCGGACAGTATCATGGACCGGTTTTCCCGGTAATCCGTATTTGCAAGGTTGGTTTCACT; site = the 11-nt target
# In short: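 Two replicates per condition were plated: chloramphenicol/ampicillin LB agar for the control, and chloramphenicol/ampicillin/kanamycin with 0.1 mM IPTG for selection. The pooled E. coli screen behind them paired targets with IS621 bridge RNA target-binding loops. Recombination efficiency is expressed from averaged, control-corrected barcode counts per million at recombinant junctions, as log10(CPM+1).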
# 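Further: IS621 recombinase and bridge RNA in Escherichia coli cells.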
row,Sequence,recombinant barcode read abundance (log10)
1,TGGACTACTTGGGTTCTAACCTGTTGCTC (site TGGACTACTGA),0.195
2,TGGACTTCTTGGGTTCTAACCTGTTGCTG (site TGGACTTCTCA),0.0836
3,TGGACTTCTTGGGTTCTAACCTGTTGCTG (site TGGACTTCTGA),0.215
4,TGGAGCCCTTGGGTTCTAACCTGTTGCAG (site TGGAGCCCTAT),0.13
5,TGGAGCCCTTGGGTTCTAACCTGTTGCAG (site TGGAGCCCTCT),0.484
6,TGGAGCCCTTGGGTTCTAACCTGTTGCAG (site TGGAGCCCTGT),0.336
7,TGGAGCCCTTGGGTTCTAACCTGTTGCAG (site TGGAGCCCTTT),0.0206
8,TGGAGTACTTGGGTTCTAACCTGTTGCCT (site TGGAGTACTAG),0.874
9,TGGAGTACTTGGGTTCTAACCTGTTGCCT (site TGGCGTACTAG),0.0846
10,TGGAGTACTTGGGTTCTAACCTGTTGCCT (site TGGGGTACTAG),0.146
11,TGGAGTACTTGGGTTCTAACCTGTTGCCT (site TGGTGTACTAG),0
12,TGGAGTCCTTGGGTTCTAACCTGTTGCCT (site TGGAGTCCTAG),1.11
13,TGGAGTCCTTGGGTTCTAACCTGTTGCCT (site TGGCGTCCTAG),0.0977
14,TGGAGTCCTTGGGTTCTAACCTGTTGCCT (site TGGGGTCCTAG),0.548
15,TGGAGTCCTTGGGTTCTAACCTGTTGCCT (site TGGTGTCCTAG),0.0821
16,TGGATGGCTTGGGTTCTAACCTGTTGCCT (site GGGATGGCTAG),0.149
17,TGGATGGCTTGGGTTCTAACCTGTTGCCT (site TGGATGGCTAG),0.17
18,TGGCAGGCTTGGGTTCTAACCTGTTGCCT (site TGGCAGACTAG),0.0119

row,Sequence,recombinant barcode read abundance (log10)
1,TGGCAGGCTTGGGTTCTAACCTGTTGCCT (site TGGCAGCCTAG),0.00869
2,TGGCAGGCTTGGGTTCTAACCTGTTGCCT (site TGGCAGGCTAG),0.64
3,TGGCAGGCTTGGGTTCTAACCTGTTGCCT (site TGGCAGTCTAG),0.0352
4,TGGCAGTCTTGGGTTCTAACCTGTTGCCT (site TGGCAGACTAG),0.207
5,TGGCAGTCTTGGGTTCTAACCTGTTGCCT (site TGGCAGCCTAG),0.0447
6,TGGCAGTCTTGGGTTCTAACCTGTTGCCT (site TGGCAGGCTAG),0.272
7,TGGCAGTCTTGGGTTCTAACCTGTTGCCT (site TGGCAGTCTAG),0.413
8,TGGCATCCTTGGGTTCTAACCTGTTGCGT (site AACAGGGCTCG),0.0723
9,TGGCATCCTTGGGTTCTAACCTGTTGCGT (site TGGCATCCTAC),2.53
10,TGGCCACCTTGGGTTCTAACCTGTTGCCT (site CGGCCACCTAG),0.115
11,TGGCCACCTTGGGTTCTAACCTGTTGCCT (site TGGCCACCTAG),1.6
12,TGGCCCTCTTGGGTTCTAACCTGTTGCTT (site TGGCCCTCTAA),1.63
13,TGGCCCTCTTGGGTTCTAACCTGTTGCTT (site TGGCCCTCTCA),0.293
14,TGGCCCTCTTGGGTTCTAACCTGTTGCTT (site TGGCCCTCTGA),0.52
15,TGGCCCTCTTGGGTTCTAACCTGTTGCTT (site TGGCCCTCTTA),0.056
16,TGGCCGACTTGGGTTCTAACCTGTTGCAC (site TCGCAGACTGT),0.0415
17,TGGCCGACTTGGGTTCTAACCTGTTGCAC (site TGGCCGACTGT),1.65
18,TGGCCTGCTTGGGTTCTAACCTGTTGCCT (site TGGCCTGCTAG),0.868

# Reference: the supplement of paper PMC11208160
